Experimental data from patent publication US7662851B2, “Use of specific cyklolignans” (Axelar AB, priority 2001, dated 2010).
Where two headings read alike, the source gives them in different places.

Key:
[1] = target: T1, IGF-1R (Homo sapiens, UniProt P08069); test: Tyrosine phosphorylation of IGF-1R in intact FM55 melanoma cells; type: cell-based; parameters: endogenous in cells; conditions: 0.05 μM, 1 h; for Level of phosphorylation in intact cells, substrate IGF-1R: FM55 cells, Experiment 3; for Level of IGF-1R phosphorylation in intact cells: FM55 melanoma cells, means of 3 experiments
T1 sequence (P08069 31-1367): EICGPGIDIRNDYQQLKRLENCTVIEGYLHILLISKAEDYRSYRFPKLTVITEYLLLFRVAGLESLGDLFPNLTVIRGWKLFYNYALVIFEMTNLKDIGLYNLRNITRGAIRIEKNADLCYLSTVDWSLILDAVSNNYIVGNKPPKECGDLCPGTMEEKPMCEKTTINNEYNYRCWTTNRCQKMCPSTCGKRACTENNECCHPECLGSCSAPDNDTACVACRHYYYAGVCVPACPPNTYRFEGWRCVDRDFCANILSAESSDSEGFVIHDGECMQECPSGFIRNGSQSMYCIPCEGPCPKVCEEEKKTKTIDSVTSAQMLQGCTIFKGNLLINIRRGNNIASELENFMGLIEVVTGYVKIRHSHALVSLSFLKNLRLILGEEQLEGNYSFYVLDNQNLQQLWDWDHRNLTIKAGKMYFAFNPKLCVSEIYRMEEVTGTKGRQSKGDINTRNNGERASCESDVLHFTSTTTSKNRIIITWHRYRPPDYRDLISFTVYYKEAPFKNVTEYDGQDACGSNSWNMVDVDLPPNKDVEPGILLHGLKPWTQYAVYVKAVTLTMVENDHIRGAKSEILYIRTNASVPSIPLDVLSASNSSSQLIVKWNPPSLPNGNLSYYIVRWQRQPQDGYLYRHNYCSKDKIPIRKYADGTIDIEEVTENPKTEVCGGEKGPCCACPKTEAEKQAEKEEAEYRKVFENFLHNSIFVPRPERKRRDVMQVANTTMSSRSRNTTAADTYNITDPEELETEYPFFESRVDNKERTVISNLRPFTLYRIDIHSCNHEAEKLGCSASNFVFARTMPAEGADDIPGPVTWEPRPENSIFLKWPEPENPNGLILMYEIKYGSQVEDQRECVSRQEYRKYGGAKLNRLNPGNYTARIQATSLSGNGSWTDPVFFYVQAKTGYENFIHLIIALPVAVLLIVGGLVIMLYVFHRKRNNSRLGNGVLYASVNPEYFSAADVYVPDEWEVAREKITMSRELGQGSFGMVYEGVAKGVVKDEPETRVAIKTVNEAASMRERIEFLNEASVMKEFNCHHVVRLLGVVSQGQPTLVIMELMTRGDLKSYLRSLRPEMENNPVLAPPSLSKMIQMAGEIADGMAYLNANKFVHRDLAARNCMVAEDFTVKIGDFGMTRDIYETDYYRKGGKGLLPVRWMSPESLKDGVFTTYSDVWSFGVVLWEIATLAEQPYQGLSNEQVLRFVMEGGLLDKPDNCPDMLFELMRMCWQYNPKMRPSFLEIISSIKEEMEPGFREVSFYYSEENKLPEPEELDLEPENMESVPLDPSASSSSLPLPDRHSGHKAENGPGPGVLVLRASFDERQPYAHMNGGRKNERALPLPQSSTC
Protocol: Cells were cultured to subconfluency in 6-cm plates, and then fresh medium containing 10% FBS and the desired compounds were added for 1 h. The cells were then lyzed and subjected to immunoprecipitation using specific antibodies. Immunoprecipitates were resolved by sodium dodecyl sulphate polyacrylamide gel electrophoresis (SDS-PAGE) and transferred to nitro-cellulose membranes and incubated with anti-phosphotyrosine antibody. Antibodies to actin (in cell extract) or IGF-1R beta subunit were used as loading controls. After detection the films were scanned for quantification.
The isolated cells were then lyzed in 10 ml ice-cold PBSTDS containing protease inhibitors (Carlberg, M., et al., J Biol Chem 271:17453-17462, 1996). 50 μl protein A or G agarose was added in 1 ml sample and incubated for 15 min at 4° C. on an orbital shaker. After centrifugation for 10 min at 10,000 r/min at 4° C. the supernatant was saved. The protein content was determined by a dye-binding assay with a reagent purchased from Bio-Rad. Bovine serum albumin was used as a standard. 15 μl Protein G Plus agarose and 5 μl anti-IGF-1R were added. After a 3 h incubation at 4° C. on an orbital shaker the precipitate was collected by pulse centrifugation in a micro centrifuge at 14,000×g for 10 s. The supernatant was discarded and the pellet was washed 3 times with PBSTDS.
Protein samples were solved in a 2×-sample buffer containing Laemmli buffer and 0.5% […] and boiled for 5 min at 96° C. Samples were separated by SDS-PAGE with a 4% stacking gel and 7.5% separation gel. Molecular weight markers (Bio Rad, Sweden) were run simultaneously in all experiments.
Following SDS-PAGE the proteins were transferred overnight to nitro-cellulose membranes (Hybond, Amersham, UK) and then blocked for 1 h at room temperature in a solution of 4% skimmed milk powder and 0.02% Tween 20 in PBS, pH 7.5. Incubations with the primary antibodies were performed for 1 h at room temperature, followed by 3 washes with PBS with Tween and incubation with the second antibody for 1 h room temperature. After another 3 washes the membranes were incubated with Streptavidin-labelled horseradish peroxidase for 30 min and then detected using Amersham ECL system (Amersham, UK). The films were scanned by Fluor-S (BioRad).
FM55 melanoma cells were seeded in 6-cm dishes, at a concentration of 10,000 cells/cm^2 in Minimal Essential Medium supplemented with 10% fetal calf serum (FCS). When the cells reached a density of 65,000 cells/cm^2 in the dishes, they were treated for 1 h with 0.05 μM podophyllotoxin, deoxypodophyllotoxin, picropodophyllin, deoxypicropodophyllin, 4′-demethyl-7-(4,6-O-ethylidene-β-D-glucopyranosyl)epipodophyllotoxin (etoposide) and podophyllotoxin-4,6-O-benzylidene-β-D-glucopyranoside (pf-4,6-O). Etoposide and pf-4,6-O were also administered at 15 μM. The cells were then harvested for assay and quantification of IGF-1R phosphorylation as described in Experiment 1. The values shown in Table 1 represent means of 3 experiments.
FM55 melanoma cells were cultured in the same way as described in Experiment 1. When reaching a density of 65,000 cells/cm^2 in the dishes, they were treated for 1 h with 0 (control) and 0.05 μM of picropodophyllin and podophyllotoxin, respectively. The cells were then isolated and subjected to immunoprecipitation of the IGF-1R, fibroblast growth factor receptor (FGFR), platelet-derived growth factor receptor (PDGFR), epidermal growth factor receptor (EGFR), insulin receptor (IR) and insulin substrate-1 (IRS-1) using antibodies to respective molecules. IRS-1 is a substrate of IGF-1R, and therefore its phosphorylation is dependent on phosphorylated IGF-1R. Gelelectrophoresis, Western blotting and quantification of the different signals were performed as described above.

[2] = test system: FM55 melanoma cell line; test: Cell viability (XTT), FM55; type: cell-based; conditions: read-out: EC50 for cell viability
Protocol: Cell proliferation kit II (Roche Inc.) is based on colorimetric change of the yellow tetrazolium salt XTT in orange formazan dye by the respiratory chain of viable cells (Roehm, N W, et al., J Immunol Methods 142:257-265, 1991). Cells seeded at a concentration of 5000/well in 100 μl medium in a 96-well plate were treated with different drugs in the given concentration. After 24 or 48 h the cells were incubated, according to the manufacturer's protocol, with XTT labelling mixture. After 4 h the formazan dye is quantified using a scanning multiwell spectrophotometer with a 495-nm filter. The absorbance is directly correlated with the number of viable cells. The standard absorbance curve was drawn by means of untreated cells seeded at a concentration of from 1000 to 10 000 cells/well with an increasing rate of 1000 cells/well. All standards and experiments were performed in triplicates.
12 different types of cell lines were seeded in 96-well plates (medium volume in a well was 100 μl), at a concentration of 10,000 cells/cm^2 in Minimal Essential Medium supplemented with fetal calf serum. When the cells had reached a concentration of 65,000 cells/cm^2, they were treated with different doses of podophyllotoxin and picropodophyllin for 48 h. Cell viability was then assayed (see above). […]

[3] = target: T1, IGF-1R; test: IGF-1R tyrosine autophosphorylation, sandwich ELISA, cell-free; type: biochemical; parameters: expressed in transfected cells; host or cells: P6 cell line (murine fibroblasts overexpressing human IGF-1R); receptor captured on plates with an antibody to the beta subunit
Protocol: IGF-1R tyrosine autophosphorylation was analysed by a sandwich ELISA assay. Briefly, 96-well plates (Immunolon, Nunc) were coated overnight at 4° C. with 1 μg/well of the monoclonal antibody Ab-5 (LabVision) to the IGF-1R beta subunit. The plates were blocked with 1% BSA in PBS Tween for 1 h, then 80 µg/well of total protein lysate from the P6 cell line was added. As a negative control was used total protein lysate from the R-cell line. The investigated compounds were added in tyrosine kinase buffer without ATP at room temperature for 30 min, prior to kinase activation with ATP. Kinase assay was performed using the Sigma kit. After spectrophotometry the IC50 values of inhibitors were determined using the Regression function of Statistica program.
To investigate whether PPP interferes with the tyrosine autophosphorylation at the ATP level or at the substrate level (i.e., the tyrosine kinase domain of the IGF-1R […]), various concentrations of ATP (19-300 μM) were added to the reaction buffer during the assay.

Compound: COc1cc([C@@H]2c3cc4c(cc3[C@H](O)[C@H]3COC(=O)[C@@H]23)OCO4)cc(OC)c1OC [Picropodophyllin, picropodophyllin]
- Level of phosphorylation in intact cells, substrate IGF-1R [1]: 20 % OD
- Level of IGF-1R phosphorylation in intact cells [1]: 8 % OD
- EC50 ([2]; FM55, 48 h): 70 nM
- IC50 ([3]; cell-free, ATP 19-300 μM in reaction buffer, read-out: IC50, autophosphorylation of IGF-1R at various ATP concentrations): 1 to 2 nM
- IC50 ([3]; cell-free, FIG. 4, read-out: IC50, autophosphorylation of IGF-1R): ~1 nM

Compound: COc1cc([C@@H]2c3cc4c(cc3[C@H](O)[C@H]3COC(=O)[C@H]23)OCO4)cc(OC)c1OC [Podophyllotoxin, podophyllotoxin]
- Level of phosphorylation in intact cells, substrate IGF-1R [1]: 7 % OD
- Level of IGF-1R phosphorylation in intact cells [1]: 5 % OD
- EC50 ([2]; 48 h): 40 nM
- IC50 ([3]; in vitro, stated in description, read-out: IC50 for IGF-1R-inhibition when tested in vitro): 1 nM
